Results published in ChEMBL document CHEMBL1153676, “Muscarinic receptor probes based on amine congeners of pirenzepine and telenzepine” (Bioorg Med Chem Lett, 1992).

Tests used:
[1] = target: T1, Muscarinic acetylcholine receptor M1 (Rattus norvegicus) (UniProt P08482); assay: Percent reduction in specific binding of 0.5 nM [3H]N-methylscopolamine (NMS) to rat forebrain membranes following a 30 min pre-incubation at concentration of 0.5 uM; type: cell membranes; settings: Membrane
T1 sequence (whole entry): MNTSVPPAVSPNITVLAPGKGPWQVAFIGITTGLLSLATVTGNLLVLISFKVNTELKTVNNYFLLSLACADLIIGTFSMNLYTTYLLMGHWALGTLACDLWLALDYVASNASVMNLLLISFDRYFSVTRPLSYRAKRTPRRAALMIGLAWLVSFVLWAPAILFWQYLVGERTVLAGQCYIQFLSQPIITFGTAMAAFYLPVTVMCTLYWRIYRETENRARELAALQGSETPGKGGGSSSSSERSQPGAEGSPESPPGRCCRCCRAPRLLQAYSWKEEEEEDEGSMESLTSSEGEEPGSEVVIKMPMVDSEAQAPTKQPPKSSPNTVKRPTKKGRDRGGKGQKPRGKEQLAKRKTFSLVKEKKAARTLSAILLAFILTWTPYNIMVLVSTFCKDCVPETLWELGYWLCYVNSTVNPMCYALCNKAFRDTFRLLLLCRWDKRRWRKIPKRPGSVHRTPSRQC

[2] = target: T2, Muscarinic acetylcholine receptor M2 (Rattus norvegicus, UniProt P10980); assay: Inhibitory constant by the inhibition of [3H]N-methylscopolamine (NMS) binding to Muscarinic acetylcholine receptor M2 of rat heart
T2 sequence (P10980 whole entry): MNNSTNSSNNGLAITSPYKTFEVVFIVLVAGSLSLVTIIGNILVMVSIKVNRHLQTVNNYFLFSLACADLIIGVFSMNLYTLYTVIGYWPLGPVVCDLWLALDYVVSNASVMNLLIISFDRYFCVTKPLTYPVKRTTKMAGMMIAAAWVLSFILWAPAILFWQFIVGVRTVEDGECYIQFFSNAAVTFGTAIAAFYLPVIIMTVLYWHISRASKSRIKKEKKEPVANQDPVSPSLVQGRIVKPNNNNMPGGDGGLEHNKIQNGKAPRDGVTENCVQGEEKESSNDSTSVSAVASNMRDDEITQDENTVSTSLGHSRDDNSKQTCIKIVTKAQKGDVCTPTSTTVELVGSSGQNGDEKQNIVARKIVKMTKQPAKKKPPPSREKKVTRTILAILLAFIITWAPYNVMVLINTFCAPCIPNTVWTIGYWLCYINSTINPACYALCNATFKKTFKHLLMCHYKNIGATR

[3] = target: T3, Muscarinic acetylcholine receptor M1 (Rattus norvegicus, UniProt P08482); assay: Inhibitory concentration was evaluated for irreversible inhibition at rat forebrain muscarinic receptor
T3 sequence (P08482 whole entry): T1 sequence (whole entry)

Structure (SMILES)	Reduction [1]	Ki [2]	IC50 [3]
O=C1Nc2cccnc2N(C(=O)CN2CCN(CCCCCCCCNC(=S)Nc3cccc(N=C=S)c3)CC2)c2ccccc21	51.1%		
Cc1scc2c1N(C(=O)CN1CCN(CCCCCCCCCCN)CC1)c1ccccc1NC2=O		3.7 nM	
O=C1Nc2cccnc2N(C(=O)CN2CCN(CCCCCCCCCNC(=S)Nc3cccc(N=C=S)c3)CC2)c2ccccc21	48.7%		
O=C1Nc2cccnc2N(C(=O)CN2CCN(CCCCCCCCCCNC(=S)Nc3cccc(N=C=S)c3)CC2)c2ccccc21	76%		0.15 nM
